Legend:
Assay type in all cases: functional
[1] = test system: LOX IMVI; assay: Growth inhibition of human LOXIMVI cells assessed as cell growth at 10^-4 M by sulforhodamine B assay; settings: read-out: Activity
[2] = test system: NCI-H322M; assay: Growth inhibition of human NCI-H322M cells by sulforhodamine B assay
[3] = test system: UO-31; assay: Growth inhibition of human UO31 cells by sulforhodamine B assay
[4] = test system: HT-29; assay: Growth inhibition of human HT-29 cells assessed as cell growth at 10^-8 M by sulforhodamine B assay; settings: read-out: Activity
[5] = test system: T47D; assay: Growth inhibition of human T47D cells by sulforhodamine B assay
[6] = test system: SF-295; assay: Growth inhibition of human SF295 cells assessed as cell growth at 10^-7 M by sulforhodamine B assay; settings: read-out: Activity
[7] = test system: PC-3; assay: Growth inhibition of human PC3 cells assessed as cell growth at 10^-4 M by sulforhodamine B assay; settings: read-out: Activity
[8] = test system: BT-549; assay: Growth inhibition of human BT549 cells by sulforhodamine B assay
[9] = test system: DU-145; assay: Growth inhibition of human DU145 cells assessed as cell growth at 10^-4 M by sulforhodamine B assay; settings: read-out: Activity
[10] = test system: U-251; assay: Growth inhibition of human U251 cells assessed as cell growth at 10^-8 M by sulforhodamine B assay; settings: read-out: Activity
[11] = test system: CCRF-CEM; assay: Growth inhibition of human CCRF-CEM cells by sulforhodamine B assay
[12] = Growth inhibition of human Hs 578T cells by sulforhodamine B assay
[13] = test system: MDA-MB-231; assay: Growth inhibition of human MDA-MB-231 cells assessed as cell growth at 10^-6 M by sulforhodamine B assay; settings: read-out: Activity
[14] = test system: HOP-62; assay: Growth inhibition of human HOP62 cells assessed as cell growth at 10^-7 M by sulforhodamine B assay; settings: read-out: Activity
[15] = Growth inhibition of human Hs 578T cells assessed as cell growth at 10^-4 M by sulforhodamine B assay; settings: read-out: Activity
[16] = Growth inhibition of human Hs 578T cells assessed as cell growth at 10^-8 M by sulforhodamine B assay; settings: read-out: Activity
[17] = test system: SR; assay: Growth inhibition of human SR cells assessed as cell growth at 10^-6 M by sulforhodamine B assay; settings: read-out: Activity
[18] = test system: SNB-19; assay: Growth inhibition of human SNB19 cells assessed as cell growth at 10^-6 M by sulforhodamine B assay; settings: read-out: Activity
[19] = test system: NCI-H23; assay: Growth inhibition of human NCI-H23 cells assessed as cell growth at 10^-7 M by sulforhodamine B assay; settings: read-out: Activity
[20] = test system: BT-549; assay: Growth inhibition of human BT549 cells assessed as cell growth at 10^-6 M by sulforhodamine B assay; settings: read-out: Activity
[21] = test system: BT-549; assay: Growth inhibition of human BT549 cells assessed as cell growth at 10^-8 M by sulforhodamine B assay; settings: read-out: Activity
[22] = test system: MCF7; assay: Growth inhibition of human MCF7 cells assessed as cell growth at 10^-4 M by sulforhodamine B assay; settings: read-out: Activity
[23] = test system: MOLT-4; assay: Growth inhibition of human MOLT4 cells assessed as cell growth at 10^-4 M by sulforhodamine B assay; settings: read-out: Activity
[24] = test system: HCT-15; assay: Growth inhibition of human HCT15 cells assessed as cell growth at 10^-4 M by sulforhodamine B assay; settings: read-out: Activity
[25] = test system: UACC-62; assay: Growth inhibition of human UACC62 cells assessed as cell growth at 10^-6 M by sulforhodamine B assay; settings: read-out: Activity
[26] = test system: SK-MEL-5; assay: Growth inhibition of human SK-MEL-5 cells assessed as cell growth at 10^-8 M by sulforhodamine B assay; settings: read-out: Activity
[27] = test system: SW-620; assay: Growth inhibition of human SW620 cells assessed as cell growth at 10^-7 M by sulforhodamine B assay; settings: read-out: Activity
[28] = test system: TK-10; assay: Growth inhibition of human TK10 cells assessed as cell growth at 10^-4 M by sulforhodamine B assay; settings: read-out: Activity
[29] = test system: SN12C; assay: Growth inhibition of human SN12C cells by sulforhodamine B assay
[30] = test system: SK-MEL-5; assay: Growth inhibition of human SK-MEL-5 cells assessed as cell growth at 10^-6 M by sulforhodamine B assay; settings: read-out: Activity
[31] = test system: A549; assay: Growth inhibition of human A549/ATCC cells assessed as cell growth at 10^-7 M by sulforhodamine B assay; settings: read-out: Activity
[32] = test system: RPMI-8226; assay: Growth inhibition of human RPMI8226 cells assessed as cell growth at 10^-4 M by sulforhodamine B assay; settings: read-out: Activity
[33] = read-out: LC50 (the source's name)
[34] = read-out: pLC50 (the source's name) (converted)

Compound: C/C=C(/C)C(=O)O[C@@H]1CC(C)(C)C[C@H]2C3=CC[C@@H]4[C@@]5(C)CCC(=O)C(C)(C)[C@@H]5CC[C@@]4(C)[C@]3(C)CC[C@@]12C(=O)O [LANTADENE A]
- growth at 100 µM [1]: 33%
- GI50 ([2]; read-out: GI50): 3.94 µM
- LC50 (50% lethal concentration) ([2]; read-out: LC50): > 100 µM
- TGI ([2]; read-out: TGI): > 100 µM
- GI50 ([2]; read-out: pGI50 (converted)): 3.98 µM
- LC50 (50% lethal concentration) ([2]; read-out: pLC50 (converted)): > 100 µM
- TGI ([2]; read-out: pTGI (converted)): > 100 µM
- GI50 ([3]; read-out: GI50): 3.44 µM
- CC50 [3, 33]: > 100 µM
- TGI ([3]; read-out: TGI): > 100 µM
- GI50 ([3]; read-out: pGI50 (converted)): 3.47 µM
- CC50 [3, 34]: > 100 µM
- TGI ([3]; read-out: pTGI (converted)): > 100 µM
- growth at 0.01 µM [4]: 99%
- GI50 ([5]; read-out: GI50): 6.15 µM
- CC50 [5, 33]: > 100 µM
- TGI ([5]; read-out: TGI): > 100 µM
- GI50 ([5]; read-out: pGI50 (converted)): 6.17 µM
- CC50 [5, 34]: > 100 µM
- TGI ([5]; read-out: pTGI (converted)): > 100 µM
- growth at 0.1 µM [6]: 88%
- growth at 100 µM [7]: 13%
- GI50 ([8]; read-out: GI50): 4.73 µM
- CC50 [8, 33]: > 100 µM
- TGI ([8]; read-out: TGI): > 100 µM
- GI50 ([8]; read-out: pGI50 (converted)): 4.68 µM
- CC50 [8, 34]: > 100 µM
- TGI ([8]; read-out: pTGI (converted)): > 100 µM
- growth at 100 µM [9]: 29%
- growth at 0.01 µM [10]: 98%
- GI50 ([11]; read-out: GI50): 3.48 µM
- CC50 [11, 33]: > 100 µM
- TGI ([11]; read-out: TGI): > 100 µM
- GI50 ([11]; read-out: pGI50 (converted)): 3.47 µM
- CC50 [11, 34]: > 100 µM
- TGI ([11]; read-out: pTGI (converted)): > 100 µM
- GI50 ([12]; read-out: GI50): 5.1 µM
- CC50 [12, 33]: > 100 µM
- TGI ([12]; read-out: TGI): > 100 µM
- GI50 ([12]; read-out: pGI50 (converted)): 5.13 µM
- CC50 [12, 34]: > 100 µM
- TGI ([12]; read-out: pTGI (converted)): > 100 µM
- growth at 1 µM [13]: 92%
- growth at 0.1 µM [14]: 95%
- growth at 100 µM [15]: 21%
- growth at 0.01 µM [16]: 97%
- growth at 1 µM [17]: 80%
- growth at 1 µM [18]: 91%
- growth at 0.1 µM [19]: 99%
- growth at 1 µM [20]: 90%
- growth at 0.01 µM [21]: 99%
- growth at 100 µM [22]: 15%
- growth at 100 µM [23]: 2%
- growth at 100 µM [24]: 9%
- growth at 1 µM [25]: 70%
- growth at 0.01 µM [26]: 90%
- growth at 0.1 µM [27]: 95%
- growth at 100 µM [28]: 6%
- GI50 ([29]; read-out: GI50): 3.47 µM
- CC50 [29, 33]: > 100 µM
- TGI ([29]; read-out: TGI): > 100 µM
- GI50 ([29]; read-out: pGI50 (converted)): 3.47 µM
- CC50 [29, 34]: > 100 µM
- TGI ([29]; read-out: pTGI (converted)): > 100 µM
- growth at 1 µM [30]: 58%
- growth at 0.1 µM [31]: 90%
- growth at 100 µM [32]: 10%
